The results in this text go back to patent publication US12558342B2, “2-[2-({12,12-dimethyl-4-oxo-6-phenyl-3,11-dioxatricyclo[8.4.0.0,2,7]tetradeca-1,5,7,9-tetraen-8-yl}oxy)acetamido]benzamide and derivatives as inhibitor of clock:bmal1 interaction for the treatment of circadian rhythm diseases and disorders” (KOC UNIVERSITESI, priority 2019, dated 2026).

The subject of the test is Clock-deficient MDA MB231 cells. As to the kind of experiment: Bmal1::dluc rhythm in Clock knockout MDA MB231 cells. In kind it is cell-based. Particulars: Clock knockout MDA MB231, different concentrations. As to the method:
We used Bmal1::dluc U2-OS and Per1::dluc NIH 3T3, and continuously monitored the bioluminescence to record circadian rhythm. This experiment was performed in 96-well plates (triplicates) and 35-mm dishes (duplicates) in the secondary screen and detailed characterization steps respectively. Briefly, cells were seeded to reach confluency. A day after, the medium was replaced with DMEM containing 0.1 μM Dexamethasone to synchronize cells. […] The 96-well plates were covered and bioluminescence was monitored by Synergy H1 Hybrid Multi-Mode Reader every 32 minutes. […] Bioluminescence was recorded every 10 minutes for 4-6 days. […] The first day's data was excluded from the analysis due to transient perturbations of luminescence after the medium change.
HEK 293T cells at 75-85% confluency were transfected with […] of pLV6-Bmal-luc plasmid, 9 ng of pCMV-AR8.2dvpr packaging vector and 1 ng of pCMV-VSVG envelope vector for 16 h. […] At 72-hour post-transduction, the circadian rhythms of cells monitored using Lumicycle.
We used Bmal1::dluc U2-OS and Per1::dluc NIH 3T3, and continuously monitored the bioluminescence to record circadian rhythm. […] The 96-well plates were covered and bioluminescence was monitored by Synergy H1 Hybrid Multi-Mode Reader every 32 minutes. […] Bioluminescence was recorded every 10 minutes for 4-6 days. […]

As to `CC1(C)CCc2c(cc(OCC(=O)Nc3ccccc3C(N)=O)c3c(-c4ccccc4)cc(=O)oc23)O1` [CLK8, 2-[2-({12,12-dimethyl-4-oxo-6-phenyl-3,11-dioxatricyclo [8.4.0.0,2,7]tetradeca-1,5,7,9-tetraen-8-yl}oxy)acetamido] benzamide], the “CLK8-mediated increase in Bmal1-luc intensity” value is “abolished”.
